Test results: patent US20250326771A1, “PIPERAZINE DERIVATIVES USEFUL IN HIV THERAPY” (VIIV HEALTHCARE COMPANY, priority 2022, published 2025)
Read-outs that look alike come from different tables or passages of the source.

What was measured:
[1] = test system: Jurkat HIV-luciferase clones; experiment: Jurkat latency reversal assay; assay type: cell-based; conditions: Homo sapiens, 48 h; Jurkat latency reversal assay potency; read-out: Jurkat pEC50 (converted)
Summary of the method: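 Pooled Jurkat clones C16, 115 and N6, each carrying one or two integrated HIV-luciferase proviruses and kept in 500 nM EFV, were exposed to 3-fold, 14-point compound titrations in duplicate (10 μM top, 0.5% DMSO) for 48 h at 37° C. Luciferase luminescence was fitted by four-parameter logistic regression for EC50 and maximal percent activation versus vehicle.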

cIAP1-BIR3 = cIAP1-BIR3 (Homo sapiens (Human), UniProt Q13490); experiment: BIR binding assay (FRET competition), cIAP1 BIR3; conditions: for cIAP1 BIR3 vs BIR2 separation window: fold separation (FS) for cIAP1
Sequence of cIAP1-BIR3 (Q13490 253-363): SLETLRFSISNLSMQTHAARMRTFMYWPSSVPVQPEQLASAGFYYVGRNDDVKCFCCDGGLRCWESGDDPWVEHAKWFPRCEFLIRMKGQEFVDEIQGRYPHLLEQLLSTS
Summary of the method: (§1)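 Each domain is run separately at its own level: 50 nM cIAP1-BIR3, 100 nM XIAP-BIR3, 325 nM for cIAP1-BIR2 or cIAP2-BIR2. Probe is a 200 nM fluorescent SMAC peptide, and the value is IC50 from FRET competition.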

cIAP1-BIR2 = cIAP1-BIR2 (Homo sapiens (Human), UniProt Q13490); experiment: BIR binding assay (FRET competition), cIAP1 BIR2
Sequence of cIAP1-BIR2 (Q13490 173-257): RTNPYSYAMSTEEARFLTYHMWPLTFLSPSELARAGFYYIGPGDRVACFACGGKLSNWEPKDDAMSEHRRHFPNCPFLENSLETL
Summary of the method: as §1

cIAP2-BIR3 = cIAP2-BIR3 (Homo sapiens (Human), UniProt Q13489); experiment: BIR binding assay (FRET competition), cIAP2 BIR3; conditions: for cIAP2 BIR3 vs BIR2 separation window: fold separation (FS) for cIAP2
Sequence of cIAP2-BIR3 (Q13489 238-349): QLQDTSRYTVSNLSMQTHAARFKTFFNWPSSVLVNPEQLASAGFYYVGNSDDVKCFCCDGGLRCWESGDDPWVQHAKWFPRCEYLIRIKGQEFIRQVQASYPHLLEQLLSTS

cIAP2-BIR2 = cIAP2-BIR2 (Homo sapiens (Human), UniProt Q13489); experiment: BIR binding assay (FRET competition), cIAP2 BIR2
Sequence of cIAP2-BIR2 (Q13489 158-242): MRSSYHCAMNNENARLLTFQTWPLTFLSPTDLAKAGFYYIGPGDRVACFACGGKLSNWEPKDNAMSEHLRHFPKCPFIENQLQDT
Summary of the method: as §1

XIAP-BIR3 = XIAP-BIR3 (Homo sapiens (Human), UniProt P98170); experiment: BIR binding assay (FRET competition), XIAP BIR3; conditions: for XIAP BIR3 vs BIR2 separation window: fold separation (FS) for XIAP
Sequence of XIAP-BIR3 (P98170 241-356): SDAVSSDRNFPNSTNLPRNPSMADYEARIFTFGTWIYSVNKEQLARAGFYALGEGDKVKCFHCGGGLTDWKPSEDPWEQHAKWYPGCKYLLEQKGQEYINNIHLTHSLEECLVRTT
Summary of the method: as §1

XIAP-BIR2 = XIAP-BIR2 (Homo sapiens (Human), UniProt P98170); experiment: BIR binding assay (FRET competition), XIAP BIR2; conditions: read-out: XIAP BIR2 (pIC50) (converted)
Sequence of XIAP-BIR2 (P98170 124-240): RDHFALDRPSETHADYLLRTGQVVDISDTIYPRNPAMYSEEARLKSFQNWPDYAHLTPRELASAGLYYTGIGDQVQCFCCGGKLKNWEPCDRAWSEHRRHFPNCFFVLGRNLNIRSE
Summary of the method: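 Compounds in a 15-point, 3-fold series competed with an AlexaFluor647 SMAC peptide (AVPIAQKSE, 200 nM) for 200 nM His-tagged XIAP-BIR2 over 60 min in pH 7.4 HEPES/CHAPS/DTT buffer. Eu-W1024 (2 nM) was then added for 30 min. IC50 and pIC50 were derived from the 615 nm/665 nm emission ratio by variable-slope fit.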

Row | SMILES | EC50 [1] | IC50 (cIAP1-BIR3) | cIAP1 BIR3 vs BIR2 separation window (cIAP1-BIR3) | IC50 (cIAP1-BIR2) | IC50 (cIAP2-BIR3) | cIAP2 BIR3 vs BIR2 separation window (cIAP2-BIR3) | IC50 (cIAP2-BIR2) | IC50 (XIAP-BIR3) | XIAP BIR3 vs BIR2 separation window (XIAP-BIR3) | IC50 (XIAP-BIR2; FRET competition binding) | IC50 (XIAP-BIR2; FRET competition)
1 | C[C@@H]1CN(CC(=O)N2CC(C)(C)c3[nH]c(=O)c(Cc4ccc(F)cc4)cc32)[C@@H](CN2CCO[C@H](COc3ccccc3Oc3ccccc3OC[C@@H]3CN(C[C@H]4CN[C@H](C)CN4CC(=O)N4CC(C)(C)c5[nH]c(=O)c(Cc6ccc(F)cc6)cc54)CCO3)C2)CN1 [Example 68, 1,1′-(2,2′-((3R,3′R,6R,6′R)-(((2S,2'S)-(((oxybis(2,1-phenylene))bis(oxy))bis(methylene))bis(morpholine-2,4-diyl))bis(methylene))bis(3-methylpiperazine-6,1-diyl))bis(acetyl))bis(6-(4-fluorobenzyl)-3,3-dimethyl-1,2,3,4-tetrahydro-5H-pyrrolo[3,2-b]pyridin-5-one)] | 0.49 to 12.6 nM | 15.8 to 31.6 nM | +++ (10,000>FS>1,000) | 3160 to 10000 nM | 7.94 to 15.8 nM | +++ (10,000>FS>1,000) | 1000 to 3160 nM | 7.94 to 15.8 nM | +++ (10,000>FS>1,000) | 10000 to 51300 nM | 
2 | C[C@@H]1CN(CC(=O)N2CC(C)(C)c3[nH]c(=O)c(Cc4ccc(F)cc4)cc32)[C@@H](CN2CCO[C@H](C(=O)NCCCCNC(=O)[C@@H]3CN(C[C@H]4CN[C@H](C)CN4CC(=O)N4CC(C)(C)c5[nH]c(=O)c(Cc6ccc(F)cc6)cc54)CCO3)C2)CN1 [Example 126, (2S,2'S)-N,N′-(butane-1,4-diyl)bis(4-(((2R,5R)-1-(2-(6-(4-fluorobenzyl)-3,3-dimethyl-5-oxo-2,3,4,5-tetrahydro-1H-pyrrolo[3,2-b]pyridin-1-yl)-2-oxoethyl)-5-methylpiperazin-2-yl)methyl)morpholine-2-carboxamide)] | 63.1 to 316 nM | 7.94 to 15.8 nM | +++ (10,000>FS>1,000) | 1000 to 3160 nM | 7.94 to 15.8 nM | +++ (10,000>FS>1,000) | 1000 to 3160 nM | 7.94 to 15.8 nM | ++++ (FS>10,000) | 10000 to 51300 nM | 
3 | C[C@@H]1CN(CC(=O)N2CC(C)(C)c3[nH]c(=O)c(Cc4ccc(F)cc4)cc32)[C@@H](CN2CCN(CCc3cn(CCC(=O)N4CCN(C[C@H]5CN[C@H](C)CN5CC(=O)N5CC(C)(C)c6[nH]c(=O)c(Cc7ccc(F)cc7)cc65)[C@H](C)C4)nn3)C[C@H]2C)CN1 [Compound 154] | 63.1 to 316 nM | 7.94 to 15.8 nM | +++ (10,000>FS>1,000) | 1000 to 3160 nM | 7.94 to 15.8 nM | +++ (10,000>FS>1,000) | 1000 to 3160 nM | 7.94 to 15.8 nM | ++++ (FS>10,000) |  | 10000 to 51300 nM
4 | C[C@@H]1CN(CC(=O)N2CC(C)(C)c3[nH]c(=O)c(Cc4ccc(F)cc4)cc32)[C@@H](CN2CCO[C@H](COc3cccc(OC[C@@H]4CN(C[C@H]5CN[C@H](C)CN5CC(=O)N5CC(C)(C)c6[nH]c(=O)c(Cc7ccc(F)cc7)cc65)CCO4)c3Br)C2)CN1 [Example 87, 1,1′-(2,2′-((3R,3′R,6R,6′R)-(((2S,2'S)-(((2-bromo-1,3-phenylene)bis(oxy))bis(methylene))bis(morpholine-2,4-diyl))bis(methylene))bis(3-methylpiperazine-6,1-diyl))bis(acetyl))bis(6-(4-fluorobenzyl)-3,3-dimethyl-1,2,3,4-tetrahydro-5H-pyrrolo[3,2-b]pyridin-5-one)] | 0.49 to 12.6 nM | 7.94 to 15.8 nM | +++ (10,000>FS>1,000) | 1000 to 3160 nM | 7.94 to 15.8 nM | +++ (10,000>FS>1,000) | 3160 to 10000 nM | 7.94 to 15.8 nM | ++++ (FS>10,000) | 10000 to 51300 nM | 
